Data from patent US11149031B2, “Substituted N-(3-fluoropropyl)-pyrrolidine compounds, processes for their preparation and therapeutic uses thereof” (SANOFI, priority 2016, dated 2021).
Where two headings read alike, the source gives them in different places.

Key:
[1] = tested on: MCF7 cells expressing mutant estrogen receptor Asp 538 Gly; assay: Test B: cell proliferation/viability assay (CellTiter-Glo) on MCF7 Asp 538 Gly mutant; type: cell-based; settings: Homo sapiens, MCF7, 168 h, MCF7 cells expressing ER Asp 538 Gly mutant, 7 days of compound exposure, read-out: proliferation MCF7 D538G IC50
Method in brief: (§1)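 MCF7 WT / ER mutant lines (estradiol-independent, Tyr537Ser or Asp538Gly); stripped-serum, phenol red-free MEM; 9 pt 1:5 dil, 3-0.000001 μM final; 7 d; CellTiter-Glo RLU → % viability vs untreated, background-subtracted.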

[2] = biological target: His6-ERα298-554 WT (ERα ligand-binding domain) (Homo sapiens (Human), UniProt P03372); assay: Test A: biochemical antagonist activity, LanthaScreen TR-FRET ERα coactivator assay, WT; settings: read-out: Antagonism WT IC50
Method in brief: (§2)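 His6-ERα LBD (0.5 nM) with 0.5 nM Tb-anti-His6 antibody, 250 nM PGC1a peptide and 3 nM (or 10 nM) estradiol in 100 mM potassium phosphate pH 7.4 with 5 mM DTT, incubated overnight at room temperature with compound.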

ERα in MCF7 cells = ERα in MCF7 cells (Homo sapiens (Human), UniProt P03372); assay: Test C: estrogen receptor degradation activity, ERα in cell western assay in MCF7 cells; type: cell-based; settings: for DC50: 4 hours post compound addition, ERα in cell western, read-out: Degradation IC50; for % Degradation at 3 μM: 4 hours, relative to fulvestrant
Method in brief: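 Cells seeded in stripped-serum medium are dosed the next day across a nine-concentration series (3 down to 0.000018 μM). Four hours later they are fixed, blocked, probed overnight with anti-ERα antibody, then labelled with an Alexa 488 secondary and a DNA dye before plate scanning.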

[3] = biological target: His6-ERα298-554 Y537S mutant (ERα ligand-binding domain) (Homo sapiens (Human), UniProt P03372, Y537S); assay: Test A: biochemical antagonist activity, LanthaScreen TR-FRET ERα coactivator assay, Y537S mutant; settings: read-out: Antagonism Y537S IC50
Method in brief: as §2

[4] = biological target: His6-ERα298-554 D538G mutant (ERα ligand-binding domain) (Homo sapiens (Human), UniProt P03372, D538G); assay: Test A: biochemical antagonist activity, LanthaScreen TR-FRET ERα coactivator assay, D538G mutant; settings: read-out: Antagonism D538G IC50
Method in brief: as §2

[5] = tested on: MCF7 cells (breast tumor cells) WT; assay: Test B: cell proliferation/viability assay (CellTiter-Glo) on MCF7 WT; type: cell-based; settings: Homo sapiens, MCF7, 168 h, 7 days of compound exposure
Method in brief: as §1

[6] = tested on: MCF7 cells expressing mutant estrogen receptor Tyr 537 Ser; assay: Test B: cell proliferation/viability assay (CellTiter-Glo) on MCF7 Tyr 537 Ser mutant; type: cell-based; settings: Homo sapiens, MCF7, 168 h, MCF7 cells expressing ER Tyr 537 Ser mutant, 7 days of compound exposure, read-out: proliferation MCF7 Y537S IC50
Method in brief: as §1

[7] = asterisk (*): protocol using 10 nM estradiol

Sequence of His6-ERα298-554 D538G mutant (ERα ligand-binding domain) (P03372 298-554 D538G): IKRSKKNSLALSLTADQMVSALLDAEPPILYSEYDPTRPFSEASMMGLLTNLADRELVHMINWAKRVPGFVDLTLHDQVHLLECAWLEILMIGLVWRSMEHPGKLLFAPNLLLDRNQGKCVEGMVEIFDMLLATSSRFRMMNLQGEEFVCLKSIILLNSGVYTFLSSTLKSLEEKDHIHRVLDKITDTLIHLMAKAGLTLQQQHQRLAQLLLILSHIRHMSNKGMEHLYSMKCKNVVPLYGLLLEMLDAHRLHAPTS
Sequence of ERα in MCF7 cells (P03372 whole entry): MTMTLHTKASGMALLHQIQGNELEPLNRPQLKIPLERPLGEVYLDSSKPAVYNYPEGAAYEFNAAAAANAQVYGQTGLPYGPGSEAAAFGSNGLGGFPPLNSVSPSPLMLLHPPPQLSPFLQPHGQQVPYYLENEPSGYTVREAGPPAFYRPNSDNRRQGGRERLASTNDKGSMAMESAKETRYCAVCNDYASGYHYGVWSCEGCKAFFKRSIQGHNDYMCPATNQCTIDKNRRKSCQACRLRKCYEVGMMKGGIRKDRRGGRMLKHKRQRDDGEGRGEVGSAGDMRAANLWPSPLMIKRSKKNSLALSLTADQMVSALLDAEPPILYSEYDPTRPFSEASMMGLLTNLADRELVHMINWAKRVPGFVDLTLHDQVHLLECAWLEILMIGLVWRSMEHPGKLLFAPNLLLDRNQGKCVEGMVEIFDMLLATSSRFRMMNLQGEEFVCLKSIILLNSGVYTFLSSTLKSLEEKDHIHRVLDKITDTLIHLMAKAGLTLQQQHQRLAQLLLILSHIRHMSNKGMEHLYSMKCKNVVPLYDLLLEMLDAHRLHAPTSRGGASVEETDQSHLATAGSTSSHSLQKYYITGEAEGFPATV
Sequence of His6-ERα298-554 Y537S mutant (ERα ligand-binding domain) (P03372 298-554 Y537S): as the sequence (P03372 298-554 D538G) above, with Y240S, G241D counted along it
Sequence of His6-ERα298-554 WT (ERα ligand-binding domain) (P03372 298-554): as the sequence (P03372 298-554 D538G) above, with G241D counted along it

Row | Compound | IC50 [1] [nM] | IC50 [2, 7] [nM] | DC50 (ERα in MCF7 cells) [nM] | % Degradation at 3 μM (ERα in MCF7 cells) [%] | IC50 [3, 7] [nM] | IC50 [4, 7] [nM] | IC50 [5] [nM] | IC50 [6] [nM] | IC50 ([2]; protocol with 3 nM estradiol) [nM] | IC50 ([3]; protocol with 3 nM estradiol) [nM] | IC50 ([4]; protocol with 3 nM estradiol) [nM]
1 | CCOc1cc(F)c(C2=C(c3ccc(O[C@H]4CCN(CCCF)C4)cc3)c3ccc(O)cc3SC2)cc1F [Example 40, 3-(4-ethoxy-2,5-difluoro-phenyl)-4-[4-[(3S)-1-(3-fluoropropyl)pyrrolidin-3-yl]oxyphenyl]-2H-thiochromen-7-ol] | 2 | 44 | 0.2 | 81 | 605 | 901 | 1 | 20 |  |  | 
2 | CCOc1ccc(C2=C(c3ccc(O[C@H]4CCN(CCCF)C4)nc3)c3ccc(O)cc3CCC2)c(F)n1 [Example 240, 6-(6-ethoxy-2-fluoro-3-pyridyl)-5-[6-[(3S)-1-(3-fluoropropyl)pyrrolidin-3-yl]oxy-3-pyridyl]-8,9-dihydro-7H-benzo[7]annulen-2-ol] | 0.5 | 6 | 0.3 | 89 | 4 | 6 | 0.3 | 3 |  |  | 
3 | Oc1ccc2c(c1F)OCCC(c1ccc3[nH]ccc3c1)=C2c1ccc(O[C@H]2CCN(CCCF)C2)cc1 [Example 113, 9-fluoro-5-[4-[(3S)-1-(3-fluoropropyl)pyrrolidin-3-yl]oxyphenyl]-4-(1H-indol-5-yl)-2,3-dihydro-1-benzoxepin-8-ol] | 14 |  | 0.7 | 80 |  |  | 5 | 31 | 6 | 19 | 32
4 | CCOc1ccc(C2=C(c3ccc(O[C@H]4CCN(CCCF)C4)cc3)c3ccc(O)cc3SCC2)c(C)c1 [Example 186, 4-(4-ethoxy-2-methyl-phenyl)-5-[4-[(3S)-1-(3-fluoropropyl)pyrrolidin-3-yl]oxyphenyl]-2,3-dihydro-1-benzothiepin-8-ol] | 0.4 | 1 | 0.6 | 85 | 16 | 21 | 0.3 | 5 |  |  | 
